Measurements as given in ChEMBL document CHEMBL1201862, “PubChem BioAssay data set” (2004).
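Results reflect a 48-hour exposure of cells in 96-well plates to compound at five concentrations. GI50 is the concentration that inhibits growth by half.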 Active and inactive are the calls of the source. Rule as the data show it: active = GI50 up to about 1.1 µM and inactive = higher.

Assays:
Assay in all cases: DTP human tumour cell line panel, 48 h
NCI-H23 = tested on: NCI-H23
OVCAR-3 = tested on: OVCAR-3
SW-620 = tested on: SW-620
A498 = tested on: A498
NCI/ADR-RES = tested on: NCI/ADR-RES
KM12 = tested on: KM12
RPMI-8226 = tested on: RPMI-8226
CAKI-1 = tested on: CAKI-1
SNB-75 = tested on: SNB-75
T47D = tested on: T47D
COLO 205 = tested on: COLO 205
UACC-62 = tested on: UACC-62
SF-539 = tested on: SF-539
OVCAR-8 = tested on: OVCAR-8
SNB-19 = tested on: SNB-19
NCI-H226 = tested on: NCI-H226
786-0 = tested on: 786-0
Hs-578T = tested on: Hs-578T
SF-295 = tested on: SF-295
Malme-3M = tested on: Malme-3M
HCT-116 = tested on: HCT-116
SN12C = tested on: SN12C
NCI-H460 = tested on: NCI-H460
BT-549 = tested on: BT-549
HOP-62 = tested on: HOP-62
MCF7 = tested on: MCF7
SK-MEL-5 = tested on: SK-MEL-5
HOP-92 = tested on: HOP-92
SK-OV-3 = tested on: SK-OV-3
HT-29 = tested on: HT-29
TK-10 = tested on: TK-10
OVCAR-4 = tested on: OVCAR-4
A549 = tested on: A549
U-251 = tested on: U-251
SK-MEL-2 = tested on: SK-MEL-2
SF-268 = tested on: SF-268
IGROV-1 = tested on: IGROV-1
K562 = tested on: K562
UACC-257 = tested on: UACC-257
SR = tested on: SR
UO-31 = tested on: UO-31
CCRF-CEM = tested on: CCRF-CEM
MOLT-4 = tested on: MOLT-4
HCT-15 = tested on: HCT-15
LOX IMVI = tested on: LOX IMVI
MDA-MB-435 = tested on: MDA-MB-435
DU-145 = tested on: DU-145
EKVX = tested on: EKVX
M14 = tested on: M14
HL-60 = tested on: HL-60
MDA-N = tested on: MDA-N
SK-MEL-28 = tested on: SK-MEL-28
PC-3 = tested on: PC-3
ACHN = tested on: ACHN
RXF 393 = tested on: RXF 393
NCI-H522 = tested on: NCI-H522
MDA-MB-231 = tested on: MDA-MB-231
OVCAR-5 = tested on: OVCAR-5

**Q.** Which results are given for `C1CCNCC1.Oc1ncnc2[nH]cc(CN3CCCCC3)c12`?
**A.** GI50 (NCI-H23): > 100 µM (inactive); GI50 (OVCAR-3): > 100 µM (inactive); GI50 (SW-620): 38 µM (inactive); GI50 (A498): > 100 µM (inactive); GI50 (NCI/ADR-RES): > 100 µM (inactive); GI50 (KM12): > 100 µM (inactive); GI50 (RPMI-8226): 22 µM (inactive); GI50 (CAKI-1): > 100 µM (inactive); GI50 (SNB-75): 55.5 µM (inactive); GI50 (T47D): 57.9 µM (inactive); GI50 (COLO 205): 73.3 µM (inactive); GI50 (UACC-62): 83.9 µM (inactive); GI50 (SF-539): 71.4 µM (inactive); GI50 (OVCAR-8): > 100 µM (inactive); GI50 (SNB-19): > 100 µM (inactive); GI50 (NCI-H226): > 100 µM (inactive); GI50 (786-0): 22.9 µM (inactive); GI50 (Hs-578T): > 100 µM (inactive); GI50 (SF-295): > 100 µM (inactive); GI50 (Malme-3M): 64.9 µM (inactive); GI50 (HCT-116): 15.7 µM (inactive); GI50 (SN12C): 48.8 µM (inactive); GI50 (NCI-H460): 16 µM (inactive); GI50 (BT-549): > 100 µM (inactive); GI50 (HOP-62): > 100 µM (inactive); GI50 (MCF7): 28.8 µM (inactive); GI50 (SK-MEL-5): > 100 µM (inactive); GI50 (HOP-92): 77.3 µM (inactive); GI50 (SK-OV-3): > 100 µM (inactive); GI50 (HT-29): 39.3 µM (inactive); GI50 (TK-10): 46 µM (inactive); GI50 (OVCAR-4): 62.4 µM (inactive); GI50 (A549): > 100 µM (inactive); GI50 (U-251): > 100 µM (inactive); GI50 (SK-MEL-2): > 100 µM (inactive); GI50 (SF-268): 87.9 µM (inactive); GI50 (IGROV-1): > 100 µM (inactive); GI50 (K562): > 100 µM (inactive); GI50 (UACC-257): 21.5 µM (inactive); GI50 (SR): 37.7 µM (inactive); GI50 (UO-31): 85.3 µM (inactive); GI50 (CCRF-CEM): 16.4 µM (inactive); GI50 (MOLT-4): 15.2 µM (inactive); GI50 (HCT-15): > 100 µM; GI50 (LOX IMVI): > 100 µM (inactive); GI50 (MDA-MB-435): > 100 µM (inactive); GI50 (DU-145): 32.5 µM (inactive); GI50 (EKVX): > 100 µM (inactive); GI50 (M14): > 100 µM (inactive); GI50 (HL-60): 19.8 µM (inactive); GI50 (MDA-N): 30.4 µM (inactive); GI50 (SK-MEL-28): > 100 µM (inactive); GI50 (PC-3): > 100 µM (inactive); GI50 (ACHN): 98.4 µM (inactive); GI50 (RXF 393): 43.8 µM (inactive); GI50 (NCI-H522): 86.3 µM (inactive); GI50 (MDA-MB-231): > 100 µM (inactive); GI50 (OVCAR-5): > 100 µM (inactive)
